Experimental data from patent US20070243147A1, “Skin and/or Hair Composition Containing Compounds for Increasing The Tanning of Skin” (BEIERSDORF AG, priority 2004, published 2007).

System: primary normal human melanocytes
Assay: melanogenesis assay (14C-tyrosine incorporation) after 3 days of incubation
Assay type: cell-based
Settings: for melanogenesis rate (measured as 14C-tyrosine incorporation) based on the untreated control (=100%): 3 days incubation, primary normal human melanocytes, mean (X transverse), n=4
Method: A melanogenesis assay was carried out after 3 days of incubation of primary normal human melanocytes with test substance compared to control. The figures listed in the table give the melanogenesis rates (measured as ^14C-tyrosine incorporation) based on the untreated control (=100%). It results from this that the melanogenesis, i.e., the process of melanine synthesis, rises to 156% or 150% when the melanocytes are cultivated in the presence of the compound (I) (2E,3S,4R)-2,3,4-trimethyl-3-[(3E,7E,11E)-3,8,12,16-tetramethylheptadeca-3,7,11,15-tetraen-1-yl]cyclohexanone (n=4).
Furthermore, a melanogenesis assay was carried out after 3 days of incubation of primary normal human melanocytes with test substance compared to control. The figures listed in the table give the melanogenesis rates (measured as ^14C-tyrosine incorporation) based on the untreated control (=100%). It results from this that the melanogenesis, i.e., the process of melanine synthesis, rises to 135% or 113% when the melanocytes are cultivated in the presence of the preferred compound (III) (4E,8E,12E,16E)-3,7,11,15-tetrahydroxy-18-(hydroxymethyl)-2,4,6,10,14,16,20-heptamethyldocosa-4,8,12,16-teraenoic acid (n=4).

Row | SMILES | melanogenesis rate (measured as 14C-tyrosine incorporation) based on the untreated control (=100%) (0.1 μg/ml test substance) [%] | melanogenesis rate (measured as 14C-tyrosine incorporation) based on the untreated control (=100%) (1 μg/ml test substance) [%] | increase of the synthesis of melanin (result in words) (tests to increase the synthesis of melanin)
1 | CC(C)=CCC/C(C)=C/CC/C(C)=C/CC/C=C(\C)CC[C@@]1(C)[C@H](C)CCC(=O)[C@@H]1C [compound (I), (2R,3S,4R)-2,3,4-trimethyl-3-[(3E,7E,11E)-3,8,12,16-tetramethylheptadeca-3,7,11,15-tetraen-1-yl]cylcohexanone] | 150 | 156 | –
2 | CCC(C)CC(/C=C(\C)C(O)C(C)/C=C/C(O)C(C)/C=C/C(O)C(C)/C=C(\C)C(O)C(C)C(=O)O)CO (centres unmarked) [compound (III), (4E,8E,12E, 16E)-3,7,11,15-tetrahydroxy-18-(hydroxymethyl)-2,4,6,10,14,16,20-heptamethyldocosa-4,8,12,16-tetraenoic acid] | 153 | 172 | particularly advantageous
